The subject of data set [1] is MRSP (Methicillin-Resistant Staphylococcus pseudintermedius). Briefly: MIC against selected strains of MRSP. As to conditions: for MIC MRSP 71994: strain 71994, Table 4; for MIC MRSP 72035: strain 72035, Table 4; for MIC MRSP 72192: strain 72192, Table 4; for MIC MRSP 76923: strain 76923, Table 4; for MIC MRSP 79882: strain 79882, Table 4; for MIC MRSP 80729: strain 80729, Table 4; for MIC MRSP 81926: strain 81926, Table 4; for MIC MRSP 86002: strain 86002, Table 4; for MIC MRSP 87655: strain 87655, Table 4; for MIC MRSP 88493: strain 88493, Table 4. Details: key to MIC MRSP 88493 / MIC MRSP 72035 / MIC MRSP 81926: MIC in μM; key to MIC MRSP 71994 / MIC MRSP 79882 / MIC MRSP 80729 / MIC MRSP 86002: MIC in μM (first well with no visible growth); key to MIC MRSP 72192 / MIC MRSP 76923 / MR 71994 / Mr 88493 / MR 72035 / MR 72192 / MR 76923 / MR 79882 / MR 80279 / MR 81926 / MR 86002 / MR 87665: MIC in μM (visual, first well with no growth); MIC MRSP 87655: unit not given beside the values. It is filed as cell-based. The procedure:
(§1) Peptides according to SEQ ID NOs as listed in Table 1 were prepared by a commercial manufacturer (CS Bio, Menlo Park, Calif.) using solid phase synthesis. Antimicrobial activity was assessed by determining the Minimal Inhibitory Concentration (MIC) against S. aureus and E. coli. Briefly, Microbroth MICs were performed using CLSI methodology (VET01-S2). For S. aureus and E. coli ATCC strains, TSA with 5% lysed horse blood agar was used for overnight culturing at 37° C. ambient air. A 0.5 mM stock for each peptide was made with cell culture water, 0.01% acetic acid and serially diluted and spotted (10 μL) in a 96-well plate for in assay dose titration concentration of 50 μM to 0.05 μM. 0.5 McFarland Standard of each strain was diluted 1:250 in Mueller-Hinton Broth (MHB). 90 μL of culture suspension was then added upon drug in the 96-well plate for overnight incubation for 18-20 hours. The MIC was determined visually at the first well of no visible growth at the corresponding concentration.
(§2) Antimicrobial activity of the peptides listed in Table 2 against different strains of MSSP (Methicillin-Susceptible Staphylococcus pseudintermedius) and MRSP (Methicillin-Resistant Staphylococcus pseudintermedius) was further assessed. The results are in Tables 3 and 4, respectively.

Data set [2] concerns MSSP (Methicillin-Susceptible Staphylococcus pseudintermedius). Briefly: MIC against selected strains of MSSP. Set-up: key to MIC MSSP 84658 / MIC MSSP 86000 / MIC MSSP 71990 / MIC MSSP 72036 / MIC MSSP 78032: MIC in μM; key to MIC MSSP 86001 / MIC MSSP 72191 / MIC MSSP 76986 / MIC MSSP 77378: MIC in μM (first well with no visible growth); MIC MSSP 49051 / MIC MSSP 81923 / MIC MSSP 84250 / Effect on MSSP 86000 / Effect on MSSP 72036 / Effect on MSSP 78032: unit not given beside the values. To be noted: for MIC MSSP 49051: strain 49051, Table 3; for MIC MSSP 71990: strain 71990, Table 3; for MIC MSSP 72036: strain 72036, Table 3; for MIC MSSP 72191: strain 72191, Table 3; for MIC MSSP 76986: strain 76986, Table 3; for MIC MSSP 77378: strain 77378, Table 3; for MIC MSSP 78032: strain 78032, Table 3; for MIC MSSP 81923: strain 81923, Table 3; for MIC MSSP 84250: strain 84250, Table 3; for MIC MSSP 84658: strain 84658, Table 3; for MIC MSSP 86000: strain 86000, Table 3; for MIC MSSP 86001: strain 86001, Table 3. The format is cell-based. The procedure: as §1, §2

A further data set deals with cRBC. The format is cell-based, canine. The procedure: SEQ ID NO: 1 was selected for further research. Toxicity of SEQ ID NO: 1 to eukaryotic blood cells was compared to that of tachyplesin (SEQ ID NO: 13). A standard, well referenced red blood cell hemolysis assay was employed against multiple species to test the lysis potential of the peptides. Red blood cells (RBCs) were prepared and isolated by several centrifuge and wash steps to remove the plasma fraction. A dose titration (50 μM to 0.05 μM) of test peptides and control peptide melittin were spotted from 50 mM stocks in a 384 well plate. Prepared RBCs were incubated with peptide for one hour at 37° C. Percent hemolysis was measured by optical density at 405 nm and utilizing 1% TritonX100 as hundred percent effect (HPE) and phosphate buffer alone as zero percent effect (ZPE).

The subject of data set [3] is Canine-derived epithelial keratinocyte (CPEK) cells. The format is cell-based. The procedure:
Safety of the peptides listed in table 2 was determining by measuring cell viability. Canine-derived epithelial keratinocyte (CPEK) cells were propagated to determine cell viability in the presence of peptides. Cells were grown from a frozen stock in CnT-09-5 (with supplements) pre-warmed media in a T75 flask and incubated overnight at 37° C., 5% CO2. Cells were washed with phosphate buffer and replenished with pre-warmed CnT-05-9 media and repeated for several days until cells reached a density of 6.6×10^4 cells/mL. Cells were then transferred to a 384 well plate, allowed to settle and dosed with peptides and melittin control peptide (50 μM to 0.05 μM) and incubated overnight at 37° C., 5% CO2. 0.1% TritonX100 as (HPE) and phosphate buffer alone as (ZPE) were added to the plates to calculate percent effect once the assay was terminated with 10 μL CELLTITER-GLO® assay reagents for a luminescent readout.

With “1 (KWCFRVCYRGICYRRCRD; Antimicrobial peptide) [compound 1]”, in data set [1], the “MIC MRSP 71994” value was 1.6, the “MIC MRSP 72035” value is 1.6, the “MIC MRSP 72192” value stood at 1.6 and the “MIC MRSP 76923” value is 1.6. Further, in data set [1], the “MIC MRSP 79882” value is reported as 1.6, the “MIC MRSP 80729” value turned out to be 1.6, the “MIC MRSP 81926” value is 1.6 and the “MIC MRSP 86002” value was 1.6. Further, in data set [1], the “MIC MRSP 87655” value was 1.6 and the “MIC MRSP 88493” value came out at 1.6. Further, in data set [2], the “MIC MSSP 49051” value amounted to 1.6, the “MIC MSSP 71990” value amounted to 1.6, the “MIC MSSP 72036” value is on record as 1.6 and the “MIC MSSP 72191” value was 1.6. In addition, in data set [2], the “MIC MSSP 76986” value is listed as 1.6, the “MIC MSSP 77378” value worked out at 1.6, the “MIC MSSP 78032” value is 1.6 and the “MIC MSSP 81923” value turned out to be 1.6. In addition, in data set [2], the “MIC MSSP 84250” value was found to be 1.6, the “MIC MSSP 84658” value turned out to be 1.6, the “MIC MSSP 86000” value is on record as 1.6 and the “MIC MSSP 86001” value was 1.6. Also, the “cRBC (50 μM)” value with cRBC turned out to be 20.5. In addition, in data set [3], the “CPEK (50 μM)” value was 21.5.

On to “2 (RWCFRVCYRGICYRRCRD; Artificial antimicrobial peptide) [compound 2]”, for which, in data set [1], the “MIC MRSP 71994” value was 1.6, the “MIC MRSP 72035” value is reported as 1.6, the “MIC MRSP 72192” value was determined as 1.6 and the “MIC MRSP 76923” value is recorded as 1.6. In data set [1], the “MIC MRSP 79882” value came out at 0.8, the “MIC MRSP 80729” value is 1.6, the “MIC MRSP 81926” value came out at 1.6 and the “MIC MRSP 86002” value came out at 1.6. In addition, in data set [1], the “MIC MRSP 87655” value is reported as 1.6 and the “MIC MRSP 88493” value was determined as 1.6. Moreover, in data set [2], the “MIC MSSP 49051” value is listed as 1.6, the “MIC MSSP 71990” value is listed as 1.6, the “MIC MSSP 72036” value is recorded as 1.6 and the “MIC MSSP 72191” value worked out at 1.6. Further, in data set [2], the “MIC MSSP 76986” value stood at 1.6, the “MIC MSSP 77378” value is 1.6, the “MIC MSSP 78032” value came out at 1.6 and the “MIC MSSP 81923” value came to 3.1. For the same substance, in data set [2], the “MIC MSSP 84250” value is 1.6, the “MIC MSSP 84658” value is 3.1, the “MIC MSSP 86000” value turned out to be 1.6 and the “MIC MSSP 86001” value is given as 1.6. In addition, in the data set with cRBC, the “cRBC (50 μM)” value was 64.0. Besides, the “CPEK (50 μM)” value in data set [3] was −1.7.

Turning to “3 (GWCFRVCYRGICYRRCRD; Artificial Antimicrobial peptide) [compound 3]”, in data set [1], the “MIC MRSP 71994” value turned out to be 1.6, the “MIC MRSP 72035” value turned out to be 1.6, the “MIC MRSP 72192” value is reported as 1.6 and the “MIC MRSP 76923” value stood at 1.6. Moreover, in data set [1], the “MIC MRSP 79882” value worked out at 0.8, the “MIC MRSP 80729” value is 1.6, the “MIC MRSP 81926” value was 1.6 and the “MIC MRSP 86002” value was 1.6. Moreover, in data set [1], the “MIC MRSP 87655” value is listed as 1.6 and the “MIC MRSP 88493” value amounted to 1.6. In addition, in data set [2], the “MIC MSSP 49051” value worked out at 1.6, the “MIC MSSP 71990” value was found to be 1.6, the “MIC MSSP 72036” value was 1.6 and the “MIC MSSP 72191” value was 1.6. Further, in data set [2], the “MIC MSSP 76986” value worked out at 1.6, the “MIC MSSP 77378” value worked out at 0.4, the “MIC MSSP 78032” value turned out to be 1.6 and the “MIC MSSP 81923” value is 1.6. Further, in data set [2], the “MIC MSSP 84250” value was determined as 1.6, the “MIC MSSP 84658” value was 1.6, the “MIC MSSP 86000” value was 1.6 and the “MIC MSSP 86001” value was 0.8. The “cRBC (50 μM)” value in the data set on cRBC came to 67.1. The “CPEK (50 μM)” value in data set [3] is 42.1.

As to “4 (KFCFRVCYRGICYRRCRD; Artificial antimicrobial peptide) [compound 4]”, in data set [1], the “MIC MRSP 71994” value is on record as 1.6, the “MIC MRSP 72035” value is given as 1.6, the “MIC MRSP 72192” value came out at 1.6 and the “MIC MRSP 76923” value is 0.8. Besides, in data set [1], the “MIC MRSP 79882” value came out at 0.8, the “MIC MRSP 80729” value is listed as 0.8, the “MIC MRSP 81926” value was 0.8 and the “MIC MRSP 86002” value is 1.6. For the same substance, in data set [1], the “MIC MRSP 87655” value came to 1.6 and the “MIC MRSP 88493” value came out at 1.6. In data set [2], the “MIC MSSP 49051” value worked out at 1.6, the “MIC MSSP 71990” value is 1.6, the “MIC MSSP 72036” value is on record as 0.8 and the “MIC MSSP 72191” value came out at 0.8. For the same substance, in data set [2], the “MIC MSSP 76986” value is listed as 0.8, the “MIC MSSP 77378” value is on record as 0.4, the “MIC MSSP 78032” value was determined as 0.8 and the “MIC MSSP 81923” value is listed as 1.6. In addition, in data set [2], the “MIC MSSP 84250” value came out at 1.6, the “MIC MSSP 84658” value turned out to be 1.6, the “MIC MSSP 86000” value came out at 1.6 and the “MIC MSSP 86001” value was 0.8. Also, the “cRBC (50 μM)” value in the data set on cRBC is listed as 67.1. Also, the “CPEK (50 μM)” value in data set [3] is given as 16.6.

Turning to “5 (KWCFYVCYRGICYRRCRD; Artificial Antimicrobial peptide) [compound 5]”, in data set [1], the “MIC MRSP 71994” value is recorded as 1.6, the “MIC MRSP 72035” value came out at 1.6, the “MIC MRSP 72192” value amounted to 1.6 and the “MIC MRSP 76923” value worked out at 1.6. Besides, in data set [1], the “MIC MRSP 79882” value was found to be 1.6, the “MIC MRSP 80729” value was 1.6, the “MIC MRSP 81926” value is reported as 1.6 and the “MIC MRSP 86002” value is given as 1.6. Further, in data set [1], the “MIC MRSP 87655” value is 1.6 and the “MIC MRSP 88493” value is 1.6. For the same substance, in data set [2], the “MIC MSSP 49051” value is reported as 1.6, the “MIC MSSP 71990” value came to 1.6, the “MIC MSSP 72036” value turned out to be 1.6 and the “MIC MSSP 72191” value is given as 1.6. Further, in data set [2], the “MIC MSSP 76986” value amounted to 1.6, the “MIC MSSP 77378” value turned out to be 0.8, the “MIC MSSP 78032” value was found to be 1.6 and the “MIC MSSP 81923” value came out at 1.6. In addition, in data set [2], the “MIC MSSP 84250” value is reported as 1.6, the “MIC MSSP 84658” value was 1.6, the “MIC MSSP 86000” value came out at 1.6 and the “MIC MSSP 86001” value was 1.6. For the same substance, the “cRBC (50 μM)” value with cRBC came to 3.1. In data set [3], the “CPEK (50 μM)” value is on record as 28.6.

The values above are taken from patent US11352396B2, “Antimicrobial peptides and methods of using same” (Zoetis Services LLC, priority 2017, dated 2022).
